The values below come from patent US11111270B2, “Inhibitor of apoptosis protein (IAP) antagonists” (Sanford Burnham Prebys Medical Discovery Institute, priority 2012, dated 2021).

What all share (assay type): binding
The target of experiment [1] is XIAP BIR1/2 (Homo sapiens, UniProt P98170). The experiment is described as follows: XIAP BIR1/2 Ki.
For experiment [2], the target named is XIAP BIR3 (Homo sapiens (Human), UniProt P98170). The experiment is described as follows: XIAP BIR3 Ki.
The target in experiment [3] is ML-IAP (Homo sapiens (Human), UniProt Q96CA5). The experiment is described as follows: ML-IAP Ki.
Sequence of ML-IAP (Q96CA5 whole entry, species assumed): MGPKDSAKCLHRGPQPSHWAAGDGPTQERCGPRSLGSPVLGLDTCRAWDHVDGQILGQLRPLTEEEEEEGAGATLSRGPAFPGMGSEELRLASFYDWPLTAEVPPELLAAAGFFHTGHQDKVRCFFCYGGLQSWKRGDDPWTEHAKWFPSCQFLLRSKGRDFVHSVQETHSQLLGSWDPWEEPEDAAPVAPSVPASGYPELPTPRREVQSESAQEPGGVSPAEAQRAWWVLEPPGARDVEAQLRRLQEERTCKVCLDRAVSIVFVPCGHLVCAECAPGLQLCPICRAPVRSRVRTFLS

Sequence of XIAP BIR3 (P98170 241-356): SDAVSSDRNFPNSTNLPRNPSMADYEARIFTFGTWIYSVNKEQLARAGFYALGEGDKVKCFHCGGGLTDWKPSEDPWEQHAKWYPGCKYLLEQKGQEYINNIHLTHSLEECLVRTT
Sequence of XIAP BIR1/2 (P98170 whole entry, looked up): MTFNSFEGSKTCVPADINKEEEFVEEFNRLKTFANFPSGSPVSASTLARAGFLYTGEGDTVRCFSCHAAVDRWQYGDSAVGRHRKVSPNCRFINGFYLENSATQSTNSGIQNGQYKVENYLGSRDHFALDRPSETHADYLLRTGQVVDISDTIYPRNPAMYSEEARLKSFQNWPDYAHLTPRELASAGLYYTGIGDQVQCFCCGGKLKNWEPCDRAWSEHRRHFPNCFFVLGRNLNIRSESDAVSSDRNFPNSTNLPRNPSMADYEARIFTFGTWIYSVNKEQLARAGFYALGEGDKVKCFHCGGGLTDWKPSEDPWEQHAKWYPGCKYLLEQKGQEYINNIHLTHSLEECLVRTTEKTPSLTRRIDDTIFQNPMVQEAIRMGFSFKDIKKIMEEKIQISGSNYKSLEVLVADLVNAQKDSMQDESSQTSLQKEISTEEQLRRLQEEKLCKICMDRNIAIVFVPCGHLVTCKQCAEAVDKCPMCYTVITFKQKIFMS

In turn, `CN[C@@H](C)C(=O)N[C@H]1CO[C@H]2CCC(C(=O)Nc3ccc(OC)cc3)N2C1=O` (some centres unmarked) [Product 3] had a Ki in experiment [1] (Table B-1) greater than 50 µM.

For `CNC(C)C(=O)N[C@H]1CO[C@H]2CCC(C(=O)Nc3ccc(OC)cc3)N2C1=O` (some centres unmarked) [Product 4], the Ki was 25 to 50 µM in experiment [2] (Table B-1) and greater than 50 µM in experiment [1] (Table B-1).

The compound `CN[C@@H](C)C(=O)N[C@H]1CO[C@H]2CCC(C(=O)NCc3ccccc3)N2C1=O` (some centres unmarked) [Product 5] returned a Ki in experiment [1] (Table B-1) greater than 50 µM.

`CN[C@@H](C)C(=O)N[C@H]1CO[C@H]2CCC(C(=O)Nc3ccc(Cl)cc3)N2C1=O` (some centres unmarked) [Product 8] came in with an inhibition constant Ki in experiment [1] (Table B-1) greater than 50 µM.

Turning to `CN[C@@H](C)C(=O)N[C@H]1CO[C@H]2CCC(C(=O)NC3CCCc4ccccc43)N2C1=O` (some centres unmarked) [Product 9], the Ki is less than 25 µM in experiment [2] (Table B-1) and greater than 50 µM in experiment [1] (Table B-1).

Regarding `CN[C@@H](C)C(=O)N[C@@H]1C(=O)N2C(C(=O)NC3CCCc4ccccc43)CC[C@@H]2O[C@@H]1C` (some centres unmarked) [Product 10], the results for the Ki in experiment [2] (Table B-1), in experiment [1] (Table B-1) and in experiment [3] (Table B-1) were less than 25 µM, greater than 50 µM and less than 25 µM, respectively.

`CN[C@@H](C)C(=O)N[C@@H]1C(=O)N2C(C(=O)Nc3cccc4ccccc34)CC[C@@H]2O[C@@H]1C` (some centres unmarked) [Product 11] had a Ki in experiment [1] (Table B-1) greater than 50 µM.

In the case of `CN[C@@H](C)C(=O)NC1CCO[C@H]2CCC(C(=O)Nc3cccc4ccccc34)N2C1=O` (some centres unmarked) [Product 13], the Ki in experiment [2] (Table B-1) and in experiment [1] (Table B-1) was less than 25 µM each time.

For `CN[C@@H](C)C(=O)N[C@H]1CCO[C@H]2CCC(C(=O)NC(c3ccccc3)c3ccccc3)N2C1=O` (some centres unmarked) [Product 14], the values for the Ki in experiment [2] (Table B-1), in experiment [1] (Table B-1) and in experiment [3] (Table B-1) were less than 25 µM, greater than 50 µM and less than 25 µM, respectively.

`CN[C@@H](C)C(=O)N[C@@H]1C(=O)N2C(C(=O)NC(c3ccccc3)c3ccccc3)CC[C@@H]2O[C@@H]1C` (some centres unmarked) [Product 15] had a Ki in experiment [1] (Table B-1) greater than 50 µM.

Take `CN[C@@H](C)C(=O)N[C@H]1CCCNC2CCC(C(=O)N[C@@H]3CCCc4ccccc43)N2C1=O` (some centres unmarked) [Product 16]: in experiment [2] (Table B-1), the Ki is less than 25 µM.

As for `CN[C@@H](C)C(=O)N[C@H]1CCCNC2CCC(C(=O)Nc3cccc4ccccc34)N2C1=O` (some centres unmarked) [Product 17], the Ki in experiment [2] (Table B-1) and in experiment [1] (Table B-1) was less than 25 µM each time.

As for `CN[C@@H](C)C(=O)N[C@H]1CCO[C@H]2c3ccccc3C(C(=O)N[C@@H]3CCCc4ccccc43)N2C1=O` (some centres unmarked) [Product 17a], the Ki in experiment [2] (Table 2-2) is less than 25 µM; in experiment [1] (Table 2-2), greater than 50 µM; in experiment [3] (Table 2-2), less than 25 µM.

With `CN[C@@H](C)C(=O)N[C@H]1CCO[C@H]2CC(C)(C)C(C(=O)N[C@@H]3CCCc4ccccc43)N2C1=O` (some centres unmarked) [Product 17b], the Ki in experiment [2] (Table 2-2), in experiment [1] (Table 2-2) and in experiment [3] (Table 2-2) was less than 25 µM throughout.

`CN[C@@H](C)C(=O)N[C@H]1CCS[C@H]2CC(C)(C)C(C(=O)N[C@@H]3CCCc4ccccc43)N2C1=O` (some centres unmarked) [Product 17c]: the Ki in experiment [2] (Table 2-2), in experiment [1] (Table 2-2) and in experiment [3] (Table 2-2) was less than 25 µM each time.

As to `CC(=O)N(C)[C@@H](C)C(=O)N[C@H]1CCCN(C(C)=O)[C@H]2CCC(C(=O)Nc3cccc4ccccc34)N2C1=O` (some centres unmarked) [Product 18], the Ki in experiment [1] (Table B-1) is greater than 50 µM.

For the compound `CN[C@@H](C)C(=O)N[C@H]1CCCN(C(C)=O)C2CCC(C(=O)N[C@@H]3CCCc4ccccc43)N2C1=O` (some centres unmarked) [Product 20], the Ki in experiment [2] (Table B-1) is less than 25 µM; in experiment [1] (Table B-1), greater than 50 µM.

With `CN[C@@H](C)C(=O)NC1CCO[C@H]2CC[C@H](C(=O)n3ccc4ccccc43)N2C1=O` (some centres unmarked) [Product 22], the Ki was 25 to 50 µM in experiment [2] (Table B-1) and greater than 50 µM in experiment [1] (Table B-1).

Regarding `CN[C@@H](C)C(=O)NC1CCO[C@H]2CC[C@@H](C(=O)n3ccc4ccccc43)N2C1=O` (some centres unmarked) [Product 23], the results for the Ki in experiment [2] (Table B-1) and in experiment [1] (Table B-1) were 25 to 50 µM and greater than 50 µM, respectively.

Regarding `CN[C@@H](C)C(=O)N[C@H]1CCO[C@H]2CC[C@@H](C(=O)Nc3cccc4ccccc34)N2C1=O` [Product 25], the inhibitory constant (Ki) in experiment [2] (Table B-1) and in experiment [1] (Table B-1) was less than 25 µM in each case.

For `CN[C@@H](C)C(=O)N[C@H]1CCN[C@H]2CCC(C(=O)N[C@@H]3CCCc4ccccc43)N2C1=O` (some centres unmarked) [Product 28], the Ki in experiment [1] (Table B-1) is greater than 50 µM.

As for `CN[C@@H](C)C(=O)N[C@H]1CCN[C@H]2CCC(C(=O)N[C@@H]3CCCc4ccccc43)N2C1=O` (some centres unmarked) [Product 29], in experiment [2] (Table B-1), the Ki was greater than 50 µM.

Regarding `CN[C@@H](C)C(=O)N[C@H]1Cc2c([nH]c3ccccc23)[C@H]2CCC(C(=O)N[C@@H]3CCCc4ccccc43)N2C1=O` (some centres unmarked) [Product 30], the Ki was 25 to 50 µM in experiment [2] (Table B-1) and greater than 50 µM in experiment [1] (Table B-1).

On to `CN[C@@H](C)C(=O)N[C@H]1Cc2c([nH]c3ccccc23)[C@H]2CCC(C(=O)N[C@@H]3CCCc4ccccc43)N2C1=O` (some centres unmarked) [Product 31], for which the Ki in experiment [2] (Table B-1) and in experiment [1] (Table B-1) was less than 25 µM in each case.

As to `CN[C@@H](C)C(=O)N[C@H]1CCS[C@H]2CC[C@H](C(=O)N[C@@H]3CCCc4ccccc43)N2C1=O` [Product 36], the values for the Ki in experiment [2] (Table B-1), in experiment [1] (Table B-1) and in experiment [3] (Table B-1) were less than 25 µM, greater than 50 µM and less than 25 µM, respectively.

As to `CN[C@@H](C)C(=O)N[C@H]1CCS(=O)(=O)[C@H]2CC[C@@H](C(=O)N[C@@H]3CCCc4ccccc43)N2C1=O` [Product 37], the Ki in experiment [2] (Table B-1) was less than 25 µM; in experiment [1] (Table B-1), greater than 50 µM.

`CN[C@@H](C)C(=O)N[C@H]1CCS(=O)(=O)[C@H]2CC[C@H](C(=O)N[C@@H]3CCCc4ccccc43)N2C1=O` [Product 38] gave a Ki in experiment [1] (Table B-1) greater than 50 µM.

Regarding `CN[C@@H](C)C(=O)N[C@H]1CCO[C@H]2CC[C@H](C(=O)N[C@@H]3CCOc4ccccc43)N2C1=O` [Product 39], the Ki in experiment [1] (Table B-1) was greater than 50 µM.

Turning to `CN[C@@H](C)C(=O)N[C@H]1CCO[C@H]2CC(C)(C)C(C(=O)Nc3ccccc3SSc3ccccc3NC(=O)C3N4C(=O)[C@@H](NC(=O)[C@H](C)NC)CCO[C@H]4CC3(C)C)N2C1=O` (some centres unmarked) [Product 40], the inhibitory constant (Ki) in experiment [2] (Table B-1) and in experiment [1] (Table B-1) was less than 25 µM in each case.

`CN[C@@H](C)C(=O)N[C@H]1CCS[C@H]2CCCC(C(=O)N[C@@H]3CCCc4ccccc43)N2C1=O` (some centres unmarked) [Product 41]: the Ki in experiment [2] (Table B-1) and in experiment [1] (Table B-1) was less than 25 µM throughout.

On to `CN[C@@H](C)C(=O)N[C@H]1CCO[C@H]2CC3(CC=CC3)C(C(=O)N[C@@H]3CCCc4ccccc43)N2C1=O` (some centres unmarked) [Product 42], for which the Ki in experiment [2] (Table B-1), in experiment [1] (Table B-1) and in experiment [3] (Table B-1) was less than 25 µM throughout.

As to `CN[C@@H](C)C(=O)N[C@H]1CCO[C@H]2CC3(CCCC3)C(C(=O)N[C@@H]3CCCc4ccccc43)N2C1=O` (some centres unmarked) [Product 43], the Ki in experiment [2] (Table B-1) and in experiment [1] (Table B-1) was less than 25 µM in each case.

`CN[C@@H](C)C(=O)N[C@H]1Cc2ccc(O)cc2[C@H]2CC(C)(C)C(C(=O)N[C@@H]3CCCc4ccccc43)N2C1=O` (some centres unmarked) [Product 45]: the Ki in experiment [2] (Table B-1) and in experiment [1] (Table B-1) was less than 25 µM in each case.

Turning to `CN[C@@H](C)C(=O)N[C@H]1CC(=O)N[C@H]2CC(C)(C)C(C(=O)N[C@@H]3CCCc4ccccc43)N2C1=O` (some centres unmarked) [Product 46], the Ki in experiment [2] (Table B-1) is less than 25 µM; in experiment [1] (Table B-1) it was greater than 50 µM; in experiment [3] (Table B-1), less than 25 µM.
